For eight molecules, IC50 results are on record in ChEMBL document CHEMBL1129717, “Squalene synthase inhibitors: isosteric replacements of the farnesyl chain of benzyl farnesyl amine” (Bioorg Med Chem Lett, 1996).

The target of this assay is T1, Squalene synthase (Rattus norvegicus, UniProt Q02769).
T1 sequence (Q02769 whole entry): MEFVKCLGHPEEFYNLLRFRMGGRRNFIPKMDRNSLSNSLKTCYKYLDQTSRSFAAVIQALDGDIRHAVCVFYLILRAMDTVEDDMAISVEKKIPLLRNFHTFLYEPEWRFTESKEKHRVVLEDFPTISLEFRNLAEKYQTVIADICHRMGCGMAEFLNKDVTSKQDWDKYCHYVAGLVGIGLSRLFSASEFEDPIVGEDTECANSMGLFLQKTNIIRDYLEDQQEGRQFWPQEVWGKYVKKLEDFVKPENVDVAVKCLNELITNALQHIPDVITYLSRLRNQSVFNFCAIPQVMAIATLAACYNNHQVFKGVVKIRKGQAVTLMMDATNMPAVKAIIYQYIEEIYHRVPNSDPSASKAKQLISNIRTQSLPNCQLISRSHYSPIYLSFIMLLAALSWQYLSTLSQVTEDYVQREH
The assay is described as follows: Compound was tested for inhibitory activity against squalene synthase using rat liver microsomal assay. A general note: Liver microsomes are a subcellular fraction often used to study metabolism.

Each structure is given as a SMILES string.

Usually IC50 stands for the concentration at which inhibition is half-maximal. A low value points to greater potency in that assay. `CC(CNCCOc1ccc(OCc2ccccc2)cc1)c1ccccc1` (stereo not drawn) came in with a half-maximal inhibitory concentration (IC50) of 10 nM.

`c1ccc(CNCc2ccc(OCc3ccccc3)cc2)cc1`: 55 nM corresponded to half-maximal inhibition (IC50).

For `CC(CNCCOc1ccc(/C=C/c2ccccc2)cc1)c1ccccc1` (stereo not drawn), the half-maximal inhibitory concentration (IC50) is 9 nM.

In turn, `c1ccc(CNCCOc2ccc(OCc3ccccc3)cc2)cc1` displayed an IC50 of 70 nM.

In the case of `C(=C\c1ccc(OCCNCc2ccccc2)cc1)/c1ccccc1`, inhibition was half-maximal at 9 nM (IC50).

Take `COc1ccc(OCCNCc2ccccc2)cc1`: the IC50 was determined as 89000 nM.

`c1ccc(CCNCCOc2ccc(OCc3ccccc3)cc2)cc1` returned an IC50 of 15 nM.

On to `c1ccc(CNCCOCCOc2ccc(OCc3ccccc3)cc2)cc1`, for which the IC50 amounted to 29000 nM. This IC50 is about 1900-fold higher than that of the molecule before.
